Broadly, the IC50 is the concentration that gives 50% inhibition.

The record followed here is patent US5786486A, “Acrylamide derivatives and process for production thereof” (Kyorin Pharmaceutical Co., Ltd., priority 1994, dated 1998).

The test system of one data set is HeLa S3 cells. Description: HeLa Cell Growth Inhibition Activity (HeLa S3, MTT). Type of data set: cell-based. Conditions: Homo sapiens, 72 hours exposure. The protocol:
HeLa Cell Growth Inhibition Activity:
HeLa S3 cells were maintained as a monolayer culture in Eagle's minimal medium (Nissui Seiyaku K. K., Tokyo) containing […] glutamine, 100 μg/mL of kanamycin sulfate, and 10% inactivated fetal calt serum at 37° C. in a carbon dioxide incubator. The cells 1.8×10^3 were inoculated to a 96-well plate, and were exposed to the test compounds from the next day for 72 hours. Then, the viable cell numbers were measured by evaluating the ability to reduce 3-[4,5-dimethylthiazol-2-yl]-2,5-diphenyltetrazolium bromide (MTT) according to the Mosmann's method (Mosmann,T., J. Imunol. Meth., 65, 55-63, 1983).

Another data set relates to Colon 26 cells. Briefly: Antitumor effect in Colon 26-bearing mice. Conditions: for Antitumor activity Colon-26 TGI % (tumor growth inhibition rate): Colon 26-bearing CDF1 mice, single dose via tail vein, tumor weighed one week after; for Chemotherapy index MTD/TGI50: ratio of maximum tolerant dose (mg/kg) to dose giving 50% tumor growth inhibition (mg/kg), colon26-bearing mice. The format is in vivo, CDF1 female mice. As for the experimental part:
Antitumor effect in Colon 26-bearing mice:
Colon 26 cells 1×10^6 were transplanted into an axillary region of 8-week old CDF1 female mice (Japan SLC Inc., Hamamatsu) subcutaneously. Six days after the transplantation, when the tumor grew palpable, the compound was administered via the tail vein. One week after the administration, the tumor was removed and weighed. The antitumor activity was represented by tumor growth inhibition rate (TGI %=(1--T/C)×100) derived from the ratio (T/C) of the average tumor weight (T) of the compound-administered group to the average tumor weight (C) of the control group.

In brackets after ≈: the same amount, converted by molar mass.

With `COC(=O)c1c(C(F)(F)F)[nH]c2c(O)cc3c(c12)[C@H](CCl)CN3C(=O)/C=C/c1ccc(/C=C/C(=O)N2C[C@@H](CCl)c3c2cc(O)c2[nH]c(C(F)(F)F)c(C(=O)OC)c32)cc1` [Example 1, (S,S)-3,3'-[3,3'-(1,4-phenylenediacryloyl)]-bis[1-chloromethyl-5-hydroxy-7-trifluoromethyl-1,2,3,6-tetrahydropyrrolo[3,2-e]indole-8-methoxycarbonyl]], in the data set with HeLa S3 cells, the IC50 was determined as 0.0031 ng/mL (≈ 0.00352 nM). Besides, the “Antitumor activity Colon-26 TGI % (tumor growth inhibition rate)” value with Colon 26 cells (7.81 μg/kg) came to 92%. Also, the “Chemotherapy index MTD/TGI50” value with Colon 26 cells was determined as 21.9.

Take `COC(=O)c1c(C(F)(F)F)[nH]c2c(O)cc3c(c12)[C@H](CCl)CN3C(=O)/C=C/c1ccc(/C=C/C(=O)N2C[C@@H](CCl)c3c2cc(O)c2[nH]c(C(F)(F)F)c(C(=O)OC)c32)c2c(OC)ccc(OC)c12` [Example 3, (S,S)-3,3'-[3,3'-(5,8-dimethoxy-1,4-naphthalenediyl)diacryloyl]-bis[1-chloromethyl-5-hydroxy-7-trifluoromethyl-1,2,3,6-tetrahydropyrrolo [3,2-e]indole-8-methoxycarbonyl]]: the IC50 with HeLa S3 cells worked out at 0.00934 ng/mL (≈ 0.00944 nM).

In the case of `COC(=O)c1c(C(F)(F)F)[nH]c2c(O)cc3c(c12)[C@H](CCl)CN3C(=O)/C=C/c1ccc(/C=C/C(=O)N2C[C@@H](CCl)c3c2cc(O)c2[nH]c(C(F)(F)F)c(C(=O)OC)c32)c2c1OCCO2` [Example 4, (S,S)-3,3'-[3,3'-(2,3-(ethylenedioxy)-1,4-phenylene)diacryloyl]-bis[1-chloromethyl-5-hydroxy-7-trifluoromethyl-1,2,3,6-tetrahydropyrrolo [3,2-e]indole-8-methoxycarbonyl]], the IC50 with HeLa S3 cells came out at 0.00276 ng/mL (≈ 0.00294 nM). In the data set with Colon 26 cells (0.488 μg/kg), the “Antitumor activity Colon-26 TGI % (tumor growth inhibition rate)” value was 91%. For the same compound, the “Chemotherapy index MTD/TGI50” value with Colon 26 cells was 9.

`COC(=O)c1c(C(F)(F)F)[nH]c2c(O)cc3c(c12)[C@H](CCl)CN3C(=O)/C=C/c1ccc(/C=C/C(=O)N2C[C@@H](CCl)c3c2cc(O)c2[nH]c(C(F)(F)F)c(C(=O)OC)c32)c2c1OCO2` [Example 5, (S,S)-3,3'-[3,3'-(2,3-(methylenedioxy)-1,4-phenylene)diacryloyl]-bis[1-chloromethyl-5-hydroxy-7-trifluoromethyl-1,2,3,6-tetrahydropyrrolo[3,2-e]indole-8-methoxycarbonyl]]: it took 0.00595 ng/mL (≈ 0.00644 nM) to reach half-maximal inhibition in the data set with HeLa S3 cells (IC50). In addition, the “Antitumor activity Colon-26 TGI % (tumor growth inhibition rate)” value in the data set with Colon 26 cells (1.95 μg/kg) is given as 90%.

`CCc1c(/C=C/C(=O)N2C[C@@H](CCl)c3c2cc(O)c2[nH]c(C(F)(F)F)c(C(=O)OC)c32)ccc(/C=C/C(=O)N2C[C@@H](CCl)c3c2cc(O)c2[nH]c(C(F)(F)F)c(C(=O)OC)c32)c1CC` [Example 6, (S,S)-3,3'-[3,3'-(2,3-diethyl-1,4-phenylene)diacryloyl]-bis[1-chloromethyl-5-hydroxy-7-trifluoromethyl-1,2,3,6-tetrahydropyrrolo[3,2-e]indole-8-methoxycarbonyl]]: half-maximal inhibition in the data set on HeLa S3 cells (IC50) required 0.0318 ng/mL (≈ 0.034 nM).

Compound `COC(=O)c1c(C(F)(F)F)[nH]c2c(O)cc3c(c12)[C@H](CCl)CN3C(=O)/C=C/c1ccc(/C=C/C(=O)N2C[C@@H](CCl)c3c2cc(O)c2[nH]c(C(F)(F)F)c(C(=O)OC)c32)c(OC)c1OC` [Example 8, (S,S)-3,3'-[3,3 '-(2,3-dimethoxy-1,4-phenylene)diacryloyl]-bis[1-chloromethy 1-5-hydroxy-7-trifluoromethyl-1,2,3,6-tetrahydropyrrolo[3,2-e]indole-8-methoxycarbonyl]] had an IC50 in the data set with HeLa S3 cells of 0.00158 ng/mL (≈ 0.00168 nM). For the same compound, the “Antitumor activity Colon-26 TGI % (tumor growth inhibition rate)” value with Colon 26 cells (0.977 μg/kg) is given as 89%. Moreover, the “Chemotherapy index MTD/TGI50” value with Colon 26 cells was 4.6.

As for `COC(=O)c1c(C(F)(F)F)[nH]c2c(O)cc3c(c12)[C@H](CCl)CN3C(=O)/C=C/c1ccc(/C=C/C(=O)N2C[C@@H](CCl)c3c2cc(O)c2[nH]c(C(F)(F)F)c(C(=O)OC)c32)c2ccccc12` [Example 10, (S,S)-3,3'-[3,3'-(1,4-naphthalenediyl)diacryloyl]-bis[1-chloromethyl-5-hydroxy-7-trifluoromethyl-1,2,3,6-tetrahydropyrrolo[3,2-e]indole-8-methoxycarbonyl]], the IC50 in the data set on HeLa S3 cells stood at 0.011 ng/mL (≈ 0.0118 nM). The “Antitumor activity Colon-26 TGI % (tumor growth inhibition rate)” value in the data set on Colon 26 cells (0.977 μg/kg) is reported as 85%. The “Chemotherapy index MTD/TGI50” value with Colon 26 cells amounted to 7.4.

In turn, `COC(=O)c1c(C(F)(F)F)[nH]c2c(O)cc3c(c12)[C@H](CCl)CN3C(=O)/C=C/c1ccc(-c2ccc(/C=C/C(=O)N3C[C@@H](CCl)c4c3cc(O)c3[nH]c(C(F)(F)F)c(C(=O)OC)c43)cn2)nc1` [Example 13, (S,S)-3,3'-[3,3'-(2,2'-bipyridyl-5,5'-diyl)diacryloyl]-bis[1-chloromethyl-5-hydroxy-7-trifluoromethyl-1,2,3,6-tetrahydropyrrolo [3,2-e]indole-8-methoxycarbonyl]] came in with an IC50 in the data set on HeLa S3 cells of 0.0198 ng/mL (≈ 0.0207 nM). Moreover, the “Antitumor activity Colon-26 TGI % (tumor growth inhibition rate)” value with Colon 26 cells (3.91 μg/kg) is given as 88%. In the data set with Colon 26 cells, the “Chemotherapy index MTD/TGI50” value is reported as 3.6.

`COC(=O)c1c(C)[nH]c2c(O)cc3c(c12)[C@H](CCl)CN3C(=O)/C=C/c1ccc(/C=C/C(=O)N2C[C@@H](CCl)c3c2cc(O)c2[nH]c(C)c(C(=O)OC)c32)cc1` [Example 18, (S,S)-3,3'-[3,3'-(1,4-phenylene)diacryloyl]-bis[1-chloromethyl-5-hydroxy-7-methyl-1,2,3,6-tetrahydropyrrolo [3,2-e]indole-8-methoxycarbonyl]] showed a 50% inhibitory concentration (IC50) in the data set with HeLa S3 cells of 0.000459 ng/mL (≈ 0.000595 nM).

In the case of `Cc1c[nH]c2c(O)cc3c(c12)[C@H](CCl)CN3C(=O)/C=C/c1ccc(/C=C/C(=O)N2C[C@@H](CCl)c3c2cc(O)c2[nH]cc(C)c32)cc1` [Example 19, (S,S)-3,3'-[3,3'-(1,4-phenylene)diacryloy]-bis[1-chloromethyl-5-hydroxy-8-methyl-1,2,3,6-tetrahydropyrrolo[3,2-e]indole]], the IC50 in the data set with HeLa S3 cells worked out at 0.0134 ng/mL (≈ 0.0204 nM).

For the compound `O=C(/C=C/c1ccc(/C=C/C(=O)N2C[C@@H](CCl)c3c2cc(O)c2[nH]c4ccccc4c32)cc1)N1C[C@@H](CCl)c2c1cc(O)c1[nH]c3ccccc3c21` [Example 20, (S,S)-3,3'-[3,3'-(1,4-phenylene)diacryloyl]-bis[1-chloromethyl-5-hydroxy-1,2-dihydropyrrolo[3,2-a]carbazole]], half-maximal inhibition in the data set on HeLa S3 cells (IC50) was put at 0.0716 ng/mL (≈ 0.0984 nM).

In turn, `COC(=O)c1c[nH]c2c(O)cc3c(c12)[C@H](CCl)CN3C(=O)/C=C/c1ccc(/C=C/C(=O)N2C[C@@H](CCl)c3c2cc(O)c2[nH]cc(C(=O)OC)c32)cc1` [Example 21, (S,S)-3,3'-[3,3'-(1,4-phenylene)diacryloy]-bis[1-chloromethyl-5-hydroxy-1,2,3,6-tetrahydropyrrolo[3,2-e]indole-8-methoxycarbonyl]] gave an IC50 in the data set with HeLa S3 cells of 0.00035 ng/mL (≈ 0.000471 nM).

`COC(=O)c1cc2c3c(cc(O)c2[nH]1)N(C(=O)/C=C/c1ccc(/C=C/C(=O)N2C[C@@H](CCl)c4c2cc(O)c2[nH]c(C(=O)OC)cc42)cc1)C[C@H]3CCl` [Example 22, (S,S)-3,3'-[3,3 '-(1,4-phenylene)diacryloy]-bis[1-chloromethyl-5-hydroxy-1,2,3,6-tetrahydropyrrolo[3,2-e]indole-7-methoxycarbonyl]] came in with an IC50 in the data set on HeLa S3 cells of 0.0227 ng/mL (≈ 0.0305 nM).
